Assay results: PMC10387993, “New pyrimidine-N-β-D-glucosides: synthesis, biological evaluation, and molecular docking investigations” (Turkish Journal of Chemistry, 2023)
≈ marks a conversion by molar mass, not a printed value. Where two headings read alike, the source gives them in different places. Values belong to the compound of their own block, whether it stands above or below them.

Columns and labels:
Format in all cases: cell-based
A549 = assay: cells; details: Homo sapiens; for LC50 (concentration causing 50% net cell loss): A549, read-out: LC50; for GI50 / IC50 / IC (total growth inhibition): A549, MTT; for IC50: read-out: IC50; for IC (total growth inhibition): read-out: TGI
Outline: (§1)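 Proliferation was measured with the MTT method on cells grown in serum-supplemented DMEM or RPMI 1640 and seeded near 1 × 10^4 per well. Growth parameters GI50, TGI and LC50 were computed from absorbances at time zero, in control growth and under drug.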

C6 (Rat brain glioma) = assay: cells; details: Rattus norvegicus; for LC50 (concentration giving 50% net cell loss relative to time zero): read-out: LC50; for GI50 / IC50 / IC (total growth inhibition): C6, MTT; for IC50: read-out: IC50; for IC (total growth inhibition): read-out: TGI
Outline: as §1

HT29 = assay: cells; details: Homo sapiens; for LC50 (concentration giving 50% net cell loss relative to time zero): HT-29, read-out: LC50; for GI50 / IC50 / IC (total growth inhibition): HT-29, HT29, MTT; for IC50: read-out: IC50; for IC (total growth inhibition): read-out: TGI
Outline: as §1

HeLa = assay: cells; details: Homo sapiens; for GI50 / IC50 / IC (total growth inhibition): MTT; for IC50: read-out: IC50; for IC (total growth inhibition): read-out: TGI; for LC50 (concentration causing 50% net cell loss): read-out: LC50
Outline: as §1

Hep3B = assay: cells; details: Homo sapiens; for GI50 / IC50 / IC (total growth inhibition): MTT; for IC50: read-out: IC50; for IC (total growth inhibition): read-out: TGI; for LC50 (concentration causing 50% net cell loss relative to time zero): read-out: LC50
Outline: as §1

MCF7 = assay: cells; details: Homo sapiens; for LC50 (concentration causing 50% net cell loss relative to time zero): MCF7, read-out: LC50; for GI50 / IC50 / IC (total growth inhibition): MCF7, MTT; for IC50: read-out: IC50; for IC (total growth inhibition): read-out: TGI
Outline: as §1

in vitro = details: human, LC50
Outline: as §1

normal FL cells = assay: cells; details: FL normal cells, MTT; for IC50: read-out: IC50; for IC (total growth inhibition): read-out: TGI
Outline: as §1

[1] = LDH cytotoxic activity assay, C6; details: rat, C6 glioma cells; for cytotoxicity at 24 h, 25 μg/mL: C6, 25 μg/mL; for cytotoxicity at 24 h, 50 μg/mL: C6, 50 μg/mL; for cytotoxicity at 24 h, 75 μg/mL: C6, 75 μg/mL; for cytotoxicity at 24 h, 100 μg/mL: C6, 100 μg/mL
Outline: (§2)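 LDH release, A492–630 nm; ~5 × 10^3 cells/well, triplicate; cpd 25/50/75/100 μg/mL, 24 h, 37 °C, 5% CO2; DMEM or RPMI 1640 + 10% FBS.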

[2] = LDH cytotoxic activity assay, HeLa; details: human, HeLa cells
Outline: as §2

[3] = LDH cytotoxic activity assay, HT29; details: human, HT29 cells; for cytotoxicity at 24 h, 25 μg/mL: HT29, 25 μg/mL; for cytotoxicity at 24 h, 50 μg/mL: HT29, 50 μg/mL; for cytotoxicity at 24 h, 75 μg/mL: HT29, 75 μg/mL; for cytotoxicity at 24 h, 100 μg/mL: HT29, 100 μg/mL
Outline: as §2

E. coli ATCC 25922 = assay: Microdilution MIC assay; details: Escherichia coli, ATCC25922; E. coli ATCC 25922, 24 h at 35 °C
Outline: (§3)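 Broth microdilution in microwells; plates incubated 24 h at 35 °C. MIC taken as the lowest concentration with no visible growth (turbidity), read by eye.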

E. coli ESBL ATCC 35218 = assay: Microdilution MIC assay; details: Escherichia coli, ATCC35218; E. coli ESBL ATCC 35218, 24 h at 35 °C
Outline: as §3

E. faecalis ATCC 29212 = assay: Microdilution MIC assay; details: E. faecalis ATCC 29212, 24 h at 35 °C
Outline: as §3

S. aureus ATCC 25923 = assay: Microdilution MIC assay; details: Staphylococcus aureus, ATCC25923, 24 h, S. aureus ATCC 25923, 24 h at 35 °C; read-out: MIC
Outline: as §3

S. gordonii NCTC 7870 = assay: Microdilution MIC assay; details: Streptococcus gordonii, NCTC7870; S. gordonii NCTC 7870, 24 h at 35 °C
Outline: as §3

S. mutans ATCC 35668 = assay: Microdilution MIC assay; details: S. mutans ATCC 35668, 24 h at 35 °C
Outline: as §3

[4] = Enterococcus faecalis, ATCC29212, 24 h, read-out: MIC
[5] = Streptococcus mutans, ATCC35668, 24 h, read-out: MIC

GI50 (A549): > 500 µg/mL
IC50 (A549): > 500 µg/mL
GI50 (C6 (Rat brain glioma)): 2.03 µg/mL (≈ 3.43 µM)
IC50 (C6 (Rat brain glioma)): 13 µg/mL (≈ 21.9 µM)
GI50 (HT29): 2.23 µg/mL (≈ 3.76 µM)
IC50 (HT29): 298 µg/mL (≈ 503 µM)
GI50 (HeLa): > 500 µg/mL
IC50 (HeLa): > 500 µg/mL
GI50 (Hep3B): 4.88 µg/mL (≈ 8.23 µM)
IC50 (Hep3B): > 500 µg/mL
GI50 (MCF7): 1.22 µg/mL (≈ 2.06 µM)
IC50 (MCF7): > 500 µg/mL
MIC (E. coli ATCC 25922): > 1000 µg/mL
MIC (E. coli ESBL ATCC 35218): > 1000 µg/mL
MIC (E. faecalis ATCC 29212; [4]): 250 µg/mL (≈ 422 µM)
MIC (S. aureus ATCC 25923): > 1000 µg/mL
MIC (S. gordonii NCTC 7870): > 1000 µg/mL
MIC (S. mutans ATCC 35668): 62.5 µg/mL (≈ 105 µM)
MIC (S. mutans ATCC 35668; [5]): 62.5 to 125 µg/mL (≈ 105 to 211 µM)
SMILES: CC(=O)OC[C@H]1O[C@@H](Nc2nc(-c3ccncc3)cc(-c3ccccc3C)n2)[C@H](OC(C)=O)[C@@H](OC(C)=O)[C@@H]1OC(C)=O [Compound 12, 2,3,4,6-tetra-O-acetyl-N-[4-(2-methylphenyl)-6-pyridin-4-ylpyrimidin-2-yl]-β-D-glucopyranosylamine]
LC50 (concentration causing 50% net cell loss) (A549): > 500 µg/mL
IC (total growth inhibition) (A549): > 500 µg/mL
LC50 (concentration giving 50% net cell loss relative to time zero) (C6 (Rat brain glioma)): 139 µg/mL (≈ 234 µM)
IC (total growth inhibition) (C6 (Rat brain glioma)): 6.49 µg/mL
LC50 (concentration giving 50% net cell loss relative to time zero) (HT29): > 500 µg/mL
IC (total growth inhibition) (HT29): > 500 µg/mL
IC (total growth inhibition) (HeLa): > 500 µg/mL
LC50 (concentration causing 50% net cell loss) (HeLa): > 500 µg/mL
IC (total growth inhibition) (Hep3B): > 500 µg/mL
LC50 (concentration causing 50% net cell loss relative to time zero) (Hep3B): > 500 µg/mL
LC50 (concentration causing 50% net cell loss relative to time zero) (MCF7): > 500 µg/mL
IC (total growth inhibition) (MCF7): > 500 µg/mL
LC50 (concentration causing 50% net cell loss) (in vitro): > 500 µg/mL
GI50 (normal FL cells): 3.68 µg/mL (≈ 6.21 µM)
IC50 (normal FL cells): > 500 µg/mL
IC (total growth inhibition) (normal FL cells): > 500 µg/mL
cytotoxicity at 24 h, 25 μg/mL [1]: 21.1%
cytotoxicity at 24 h, 50 μg/mL [1]: 46.7%
cytotoxicity at 24 h, 75 μg/mL [1]: 75.2%
cytotoxicity at 24 h, 100 μg/mL [1]: 87.4%
cytotoxicity at 24 h, 25 μg/mL [2]: 18.8%
cytotoxicity at 24 h, 50 μg/mL [2]: 30.8%
cytotoxicity at 24 h, 75 μg/mL [2]: 42.6%
cytotoxicity at 24 h, 100 μg/mL [2]: 49.6%
cytotoxicity at 24 h, 25 μg/mL [3]: 30.7%
cytotoxicity at 24 h, 50 μg/mL [3]: 41.9%
cytotoxicity at 24 h, 75 μg/mL [3]: 62.6%
cytotoxicity at 24 h, 100 μg/mL [3]: 77.6%

GI50 (A549): > 500 µg/mL
IC50 (A549): > 500 µg/mL
GI50 (C6 (Rat brain glioma)): 1.97 µg/mL (≈ 3.32 µM)
IC50 (C6 (Rat brain glioma)): 7.55 µg/mL (≈ 12.7 µM)
GI50 (HT29): 2.94 µg/mL (≈ 4.96 µM)
IC50 (HT29): > 500 µg/mL
GI50 (HeLa): 4.48 µg/mL (≈ 7.56 µM)
IC50 (HeLa): 60.4 µg/mL (≈ 102 µM)
GI50 (Hep3B): 2.56 µg/mL (≈ 4.32 µM)
IC50 (Hep3B): > 500 µg/mL
GI50 (MCF7): 1.84 µg/mL (≈ 3.1 µM)
IC50 (MCF7): 297 µg/mL (≈ 500 µM)
MIC (E. coli ATCC 25922): > 1000 µg/mL
MIC (E. coli ESBL ATCC 35218): > 1000 µg/mL
MIC (E. faecalis ATCC 29212): 31.25 µg/mL (≈ 52.7 µM)
MIC (E. faecalis ATCC 29212; [4]): 31.2 to 125 µg/mL (≈ 52.7 to 211 µM)
MIC (S. aureus ATCC 25923): 500 µg/mL (≈ 844 µM)
MIC (S. gordonii NCTC 7870): > 1000 µg/mL
MIC (S. mutans ATCC 35668): 125 µg/mL (≈ 211 µM)
MIC (S. mutans ATCC 35668; [5]): 62.5 to 125 µg/mL (≈ 105 to 211 µM)
SMILES: CC(=O)OC[C@H]1O[C@@H](Nc2nc(-c3cccc(C)c3)cc(-c3ccccn3)n2)[C@H](OC(C)=O)[C@@H](OC(C)=O)[C@@H]1OC(C)=O [Compound 13, 2,3,4,6-tetra-O-acetyl-N-[4-(3-methylphenyl)-6-pyridin-2-ylpyrimidin-2-yl]-β-D-glucopyranosylamine]
LC50 (concentration causing 50% net cell loss) (A549): > 500 µg/mL
IC (total growth inhibition) (A549): > 500 µg/mL
LC50 (concentration giving 50% net cell loss relative to time zero) (C6 (Rat brain glioma)): 33.9 µg/mL (≈ 57.2 µM)
IC (total growth inhibition) (C6 (Rat brain glioma)): 4.7 µg/mL
LC50 (concentration giving 50% net cell loss relative to time zero) (HT29): > 500 µg/mL
IC (total growth inhibition) (HT29): > 500 µg/mL
IC (total growth inhibition) (HeLa): 17.3 µg/mL
LC50 (concentration causing 50% net cell loss) (HeLa): 224 µg/mL (≈ 378 µM)
IC (total growth inhibition) (Hep3B): > 500 µg/mL
LC50 (concentration causing 50% net cell loss relative to time zero) (Hep3B): > 500 µg/mL
LC50 (concentration causing 50% net cell loss relative to time zero) (MCF7): > 500 µg/mL
IC (total growth inhibition) (MCF7): 397 µg/mL
LC50 (concentration causing 50% net cell loss) (in vitro): > 500 µg/mL
GI50 (normal FL cells): 1.63 µg/mL (≈ 2.75 µM)
IC50 (normal FL cells): 18.2 µg/mL (≈ 30.7 µM)
IC (total growth inhibition) (normal FL cells): 19.1 µg/mL
cytotoxicity at 24 h, 25 μg/mL [1]: 15%
cytotoxicity at 24 h, 50 μg/mL [1]: 51.2%
cytotoxicity at 24 h, 75 μg/mL [1]: 77.1%
cytotoxicity at 24 h, 100 μg/mL [1]: 98.3%
cytotoxicity at 24 h, 25 μg/mL [2]: 18.1%
cytotoxicity at 24 h, 50 μg/mL [2]: 28%
cytotoxicity at 24 h, 75 μg/mL [2]: 42.8%
cytotoxicity at 24 h, 100 μg/mL [2]: 50.9%
cytotoxicity at 24 h, 25 μg/mL [3]: 31.7%
cytotoxicity at 24 h, 50 μg/mL [3]: 45.5%
cytotoxicity at 24 h, 75 μg/mL [3]: 66.4%
cytotoxicity at 24 h, 100 μg/mL [3]: 79.2%
